According to PubChem BioAssay (NCI):
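Values below derive from 48-hour exposures of cells grown in 96-well plates, with endpoints linearly interpolated between the two concentrations bracketing the appropriate inhibition level. TGI: concentration producing complete growth inhibition.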

What was measured:
Assay in all cases: NCI-60 cell line screen, 48 h
EKVX NSCLC = test system: EKVX NSCLC
TK-10 renal = test system: TK-10 renal
NCI-H522 lung = test system: NCI-H522 lung
RXF 393 renal = test system: RXF 393 renal
SK-MEL-2 melanoma = test system: SK-MEL-2 melanoma
IGROV1 ovarian = test system: IGROV1 ovarian
SF-295 CNS = test system: SF-295 CNS
ACHN renal = test system: ACHN renal
RPMI-8226 leukemia = test system: RPMI-8226 leukemia
SNB-75 CNS = test system: SNB-75 CNS
HCT-15 colon = test system: HCT-15 colon
SF-268 CNS = test system: SF-268 CNS
SK-MEL-28 melanoma = test system: SK-MEL-28 melanoma
OVCAR-5 ovarian = test system: OVCAR-5 ovarian
HOP-62 NSCLC = test system: HOP-62 NSCLC
T-47D breast = test system: T-47D breast

Compound | TGI (EKVX NSCLC) [µM] | TGI (TK-10 renal) [µM] | TGI (NCI-H522 lung) [µM] | TGI (RXF 393 renal) [µM] | TGI (SK-MEL-2 melanoma) [µM] | TGI (IGROV1 ovarian) [µM] | TGI (SF-295 CNS) [µM] | TGI (ACHN renal) [µM] | TGI (RPMI-8226 leukemia) [µM] | TGI (SNB-75 CNS) [µM] | TGI (HCT-15 colon) [µM] | TGI (SF-268 CNS) [µM] | TGI (SK-MEL-28 melanoma) [µM] | TGI (OVCAR-5 ovarian) [µM] | TGI (HOP-62 NSCLC) [µM] | TGI (T-47D breast) [µM]
COc1cc(-c2cccs2)sc1-c1cccs1 | > 100 | > 100 | > 100 | 54.1 | > 100 | > 100 | > 100 | > 100 | > 100 | 66.5 | > 100 | > 100 | > 100 | > 100 |  | 
COc1cc2c(cc1O)[C@H](C)C(c1ccc(OC)c(OC)c1)O2 (some centres undefined) | > 100 | 30.1 | 30.8 | 30.3 | 12.8 | 4.36 | > 100 | 22.4 |  | 11.7 | 13.3 | > 100 | 23 | > 100 | > 100 | 
Cc1ccc(C(=O)OC(C(=O)O)C(OC(=O)c2ccc(C)cc2)C(=O)O)cc1 (centres undefined) (tested in a mixture with another compound) | 26.6 |  | 11.4 | 16 | 23.5 | 26.5 | 16.7 |  | 9.23 | 14.8 | 17.6 | 28.3 | 19.7 | 24.6 | 29.2 | 
CON(C)C(=O)C(C)N(Cc1ccccc1)Cc1ccccc1 (centres undefined) | > 100 | > 100 |  | > 100 |  | > 100 | > 100 | > 100 | > 100 | > 100 | > 100 | > 100 | > 100 | > 100 | > 100 | 
C(=C/CCCN1O[C@@H](CCCCCCCCc2cccnc2)[C@H]2CCC[C@H]21)/CCCCCCCCCc1cccnc1 | 13.9 | 38.4 |  | 32.9 | 52.4 | 79.4 | 41.9 |  | 28 | 51.4 | 58.9 | 63.7 | 48.7 | 41.5 | 49.3 | 66.6
COc1cc(OCCN(C)C)c2[nH]c(C(=O)N3CC(CCl)c4ccc(N)cc43)cc2c1 (centres undefined) | 1.37 | 1.09 |  | 0.033 | 0.0933 |  |  |  | 0.271 | 0.565 | 1.58 | 0.908 |  | 5.63 | 0.0507 | 
O=C1/C(=C/c2ccco2)NC(=S)N1CN1CCCCC1 | > 100 | > 100 | > 100 |  | > 100 | > 100 | > 100 | > 100 | > 100 | > 100 | > 100 | > 100 | > 100 | > 100 | > 100 | 
CCOC(=O)C12OC(OCC)(CC1(OCC)OCC)C1(CC1)C2=O (centres undefined) | > 100 | > 100 |  |  | > 100 | > 100 | > 100 | > 100 |  | > 100 | > 100 | > 100 | > 100 | > 100 | > 100 | 
